The term inhibition in vivo denotes how much of the control response was suppressed. A high value points to strong suppression. For orientation: IC50 means the concentration at which inhibition is half-maximal. A lower IC50 goes with inhibition by little substance.

From patent US6020342A, “Fused imidazo[1,2-A]pyridines” (Shinnippon Pharmaceutical, Inc., priority 1995, dated 2000) come the findings set out here.

For data set [1], the system named is ethanol-induced gastric lesion. The experiment in a line: Inhibition of Ethanol-induced Gastric Lesion (Protection of gastric mucosa). In kind it is in vivo, male Wister rats. The following applies: Rattus norvegicus, po, 1 h; 30 mg/kg orally, rats, ethanol 0.5 ml/100 g. The method, then: Inhibition of Ethanol-induced Gastric Lesion (Protection of gastric mucosa)
Male Wister rats (6-7weeks, 5 rats per group) fasted for 24 hours were used (water ad libitum). Test compound (30 mg/kg) suspended in 0.5% aqueous CMC-Na solution was orally administered. In the control group, only 0.5% aqueous CMC-Na solution was administered. Thirty minutes after administration, 0.5 ml/100 g body weight of ethanol was orally administered to cause gastric lesion. After one hour, the rat was killed by excessive amount of ether, and the stomach was removed and fixed with 2% formalin. After fixation, the stomach was dissected along the large curvature. The size of each of mucosal lesions was measured under dissecting microscope, and the total size of the lesions per rat was determined and used as ulcer index (mm). Inhibition of gastric lesion was determined by comparing the ulcer index in the control group and test group.

Data set [2] deals with T1, H^+ /K^+ -ATPase (Sus scrofa, UniProt P19156).
T1 construct: a microsome fraction prepared from porcine gastric mucosa was used as a standard enzyme; from tissue; host or cells: porcine gastric mucosa, microsome fraction
T1 sequence (P19156 2-1034 limits assumed): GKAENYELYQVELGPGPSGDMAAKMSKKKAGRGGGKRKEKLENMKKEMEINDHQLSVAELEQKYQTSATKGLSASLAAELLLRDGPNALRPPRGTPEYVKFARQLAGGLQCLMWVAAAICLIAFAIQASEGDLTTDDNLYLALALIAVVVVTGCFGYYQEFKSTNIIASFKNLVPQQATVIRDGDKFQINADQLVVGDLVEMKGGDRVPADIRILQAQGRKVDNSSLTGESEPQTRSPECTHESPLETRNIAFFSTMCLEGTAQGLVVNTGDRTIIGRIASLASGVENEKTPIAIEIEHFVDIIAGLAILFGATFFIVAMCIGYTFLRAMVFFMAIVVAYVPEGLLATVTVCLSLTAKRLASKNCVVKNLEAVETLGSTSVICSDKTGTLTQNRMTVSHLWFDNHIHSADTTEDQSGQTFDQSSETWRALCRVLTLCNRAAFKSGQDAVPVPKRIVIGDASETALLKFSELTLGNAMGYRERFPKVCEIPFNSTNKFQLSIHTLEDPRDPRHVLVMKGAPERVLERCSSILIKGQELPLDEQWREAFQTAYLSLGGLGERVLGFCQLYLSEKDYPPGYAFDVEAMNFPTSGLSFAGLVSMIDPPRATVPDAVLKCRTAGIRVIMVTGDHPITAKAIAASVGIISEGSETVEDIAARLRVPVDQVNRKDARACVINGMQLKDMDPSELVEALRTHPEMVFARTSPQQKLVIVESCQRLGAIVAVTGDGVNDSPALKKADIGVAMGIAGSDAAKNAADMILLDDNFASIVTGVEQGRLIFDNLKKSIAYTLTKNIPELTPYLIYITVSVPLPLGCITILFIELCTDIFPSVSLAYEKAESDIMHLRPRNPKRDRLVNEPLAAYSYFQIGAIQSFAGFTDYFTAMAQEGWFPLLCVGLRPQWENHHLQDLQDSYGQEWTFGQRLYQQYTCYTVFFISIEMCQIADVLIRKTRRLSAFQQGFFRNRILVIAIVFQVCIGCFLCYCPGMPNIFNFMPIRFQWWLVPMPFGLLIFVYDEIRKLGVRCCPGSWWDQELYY
T1 sequence (P18434 whole entry partner): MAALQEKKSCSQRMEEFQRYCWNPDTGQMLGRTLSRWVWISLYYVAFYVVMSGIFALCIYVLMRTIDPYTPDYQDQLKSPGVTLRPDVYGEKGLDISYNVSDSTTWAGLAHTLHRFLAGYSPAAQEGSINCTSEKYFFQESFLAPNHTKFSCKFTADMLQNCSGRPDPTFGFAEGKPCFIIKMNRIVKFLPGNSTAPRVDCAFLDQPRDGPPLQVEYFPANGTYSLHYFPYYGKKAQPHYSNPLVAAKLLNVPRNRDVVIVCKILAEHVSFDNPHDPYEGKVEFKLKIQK
As to the kind of experiment: Inhibitory Action on H^+ /K^+ -ATPase Activity. It counts as biochemical. As to conditions: microsome fraction from porcine gastric mucosa, pH7.4, 37° C., 30 min preincubation, 15 min reaction. The method, then: Inhibitory Action on H^+ /K^+ -ATPase Activity
According to the method of Hongo et al. [The Japanese Journal of Pharmacology, 52, p295, (1990)], a microsome fraction prepared from porcine gastric mucosa was used as a standard enzyme. The standard enzyme (10-20lig protein) and the test compound (0.1-100 μM) dissolved in dimethylsulfoxide was incubated at 37° C. for 30 minutes in the 50 mM Tris-acetate buffer (pH7.4, containing 2 mM magnesium chloride, 5 mM potassium chloride). The enzyme reaction was started by adding adenosinetriphosphate (ATP). Tris at the final concentration of 2 mM, and the reaction was kept at 37° C. for 15 minutes. The reaction was stopped by adding chilled 10% trichloroacetic acid. Inorganic phosphate released during the reaction was calorimetrically determined according to the method of Fiske-Subbarow [The Journal of Biological Chemistry, 66, p375, (1925)]. H^+ /K^+ -ATPase activity was determined by the difference of the enzyme activities under the conditions with or without potassium chloride. The inhibitory activities of test compounds were determined as the 50% inhibitory concentration (IC50 value) from reaction-concentration curve, and the results are shown in Table 3.

The test system of data set [3] is gastric acid secretion. The experiment in a line: Inhibition of Gastric Acid Secretion Observed Under Stomach Perfusion Method. It counts as in vivo, male Sprague Dawrey rats. As to conditions: Rattus norvegicus, ip, 1 h; rats, histamine i.v. 8 mg/kg/hr, inhibition one hour after administration (1-10 mg/kg, "intrapenetorially"); read-out: ID50 (dose showing 50% inhibition of acid secretion). The method, then: Inhibition of Gastric Acid Secretion Observed Under Stomach Perfusion Method
Male Sprague Dawrey rats (6-7weeks) fasted for 24 hours were used (water ad libitum). The rats were anesthetized by intraperitoneal administration of 1.25 g/kg of urethane. The abdomen was incised, and gastral cavity was perfused with saline during experiment. The perfusate was titrated by 10 mM sodium hydroxide up to pH5.5 using an autotitrator in accordance with Stat-method. Gastric acid secretion was stimulated by intravenous administration of histamine dihydrochloride (8 mg/kg/hr). Two hours after histamine stimulation, a test compound 1-10 mg/kg) was administered intrapenetorially. The test compound was mixed with small amount of polysorbate-80, and the mixture was suspended in saline. The test compound was evaluated using ID50 (dose showing 50% inhibition of acid secretion) which was calculated based on inhibition of the acid secretion observed one hour after administration of the compound.

On the set-up of data set [4]: species or system male ICR mice. As to conditions: mouse, in vivo, po, 10080 min. The protocol:
Male ICR mice (6 weeks, 3 mice per group) fasted for 16 hours were used ad libitum). A test compound suspended in 5% aqueous gum arabic solution was orally administered. After administration, mortality of the animals observed during 7 days and approximate lethal dose was determined.

Data set [5] deals with gastric acid secretion. The experiment in a line: Inhibition of Gastric Acid Secretion Observed Under Acute Fistula Method. It counts as in vivo, male Wistar rats. As to conditions: Rattus norvegicus; 30 mg/kg intraduodenally, rats, histamine 10 mg/kg s.c., cumulative 2 h. The protocol: Inhibition of Gastric Acid Secretion Observed Under Acute Fistula Method
Male Wistar rats (6-8 weeks) fasted for 24 hours (water ad libitum) were used. The rats were anesthetized by intraperitoneal administration of 1.25 g/kg of urethane. The abdomen was incised, and acute gastric fistula was connected to the stomach. Two ml of saline was injected into the stomach, and recovered every 20 minutes. The gastric acid secretion was determined by titrating of gastric juice by 150 mM sodium hydroxide up to pH7.0 using an autotitrator. Test compounds (30 mg/kg) suspended in a 0.5% aqueous sodium carboxymethylcellulose (CMC-Na) solution were administered intraduodenally. After 1 hour, gastric acid secretion was stimulated by subcutaneous administration of histamine dihydrochloride dissolved in saline (10 mg/kg). Inhibition (%) of gastric acid secretion was determined by calculating cumulative amount of the acid secretion during two hours after histamine stimulation and then comparing the cumulative amount with that in the control group. In the control group, only 0.5% aqueous CMC-Na solution was administered intraduodenally.

Structures are written as SMILES.

`Cc1ccccc1-c1nc2c3ccccc3ccn2c1N` [Compound 3, 3-Amino-2-(2-methylphenyl)imidazo[2,1-a]isoquinoline]: the inhibition in vivo at 30 mg/kg in data set [1] amounted to 73.5%; in data set [5] it was 82.2%. The IC50 in data set [2] is 26 µM. The ED50 in data set [3] is 3.4 mg/kg. Besides, the Approximate lethal dose in data set [4] was > 2,000 mg/kg.
Compound `Cc1ccccc1-c1nc2c3cc(Cl)ccc3ccn2c1N` [Compound 6, 3-Amino-9-chloro-2-(2-methylphenyl)imidazo[2,1-a]isoquinoline] displayed an IC50 in data set [2] of 12 µM. Further, the ED50 in data set [3] stood at 5 mg/kg. Besides, the Approximate lethal dose in data set [4] is reported as > 2,000 mg/kg. The compound also gave an inhibition in vivo at 30 mg/kg in data set [5] of 79.6%.
The compound `Cc1ccccc1-c1nc2c3ccccc3cc(C)n2c1N` [Compound 9, 3-Amino-5-methyl-2-(2-methylphenyl)imidazo[2,1-a]isoquinoline] gave an IC50 in data set [2] of 34 µM. Moreover, the ED50 in data set [3] worked out at 3.1 mg/kg. In data set [4], the Approximate lethal dose is > 2,000 mg/kg. This compound also came in with an inhibition in vivo at 30 mg/kg in data set [5] of 90.7%.
Regarding `COc1ccc2ccn3c(N)c(-c4ccccc4C)nc3c2c1` [Compound 26, 3-Amino-9-methoxy-2-(2-methylphenyl)imidazo[2,1-a]isoquinoline], in data set [2], the IC50 came to 32 µM. In addition, the ED50 in data set [3] amounted to 2.8 mg/kg. Moreover, in data set [4], the Approximate lethal dose is listed as > 2,000 mg/kg. In data set [5], this compound yielded an inhibition in vivo at 30 mg/kg of 90.8%.
In turn, `CSc1cccc2c1ccn1c(N)c(-c3ccccc3C)nc21` [Compound 46, 3-Amino-2-(2-methylphenyl)-7-(methylthio)imidazo[2,1-a]isoquinoline] came in with an IC50 in data set [2] of 8.4 µM. The same compound came in with an inhibition in vivo at 30 mg/kg in data set [5] of 73.8%.
Take `COc1ccc2ccn3c(N)c(-c4sccc4C)nc3c2c1` [Compound 75, 3-Amino-9-methoxy-2-(3-methyl-2-thienyl)imidazo[2,1-a]isoquinoline]: the IC50 in data set [2] was 6.4 µM. Moreover, in data set [5], testing at 30 mg/kg gave an inhibition in vivo of 73.3%.
On to `CCNc1c(-c2ccccc2C)nc2c3ccccc3c(OC)cn12` [Compound 166, 3-Ethylamino-6-methoxy-2-(2-methylphenyl)imidazo[2,1-a]isoquinoline], for which the results for the inhibition in vivo at 30 mg/kg in data set [1] and in data set [5] were 49.7% and 54.9%, respectively. This compound also showed an IC50 in data set [2] of 23 µM. Further, the Approximate lethal dose in data set [4] is > 2,000 mg/kg.
Compound `CCNc1c(-c2sccc2C)nc2c3ccccc3c(OC)cn12` [Compound 176, 3-Ethylamino-6-methoxy-2-(3-methyl-2-thienyl)imidazo[2,1-a]isoquinoline] displayed an IC50 in data set [2] of 9 µM. Also, in data set [4], the Approximate lethal dose is given as > 2,000 mg/kg. This compound also returned an inhibition in vivo at 30 mg/kg in data set [5] of 49.9%.
The corresponding values for `CCNc1c(-c2csc(Cl)c2C)nc2c3ccccc3ccn12` [Compound 179, 2-(2-Chloro-3-methyl-4-thienyl)-3-ethylaminoimidazo[2,1-a]isoquinoline] are 4.8 µM, > 2,000 mg/kg and 52.8%.
Compound `CCCNc1c(-c2ccccc2C)nc2c3ccccc3c(OC)cn12` [Compound 182, 6-Methoxy-2-(2-methylphenyl)-3-propylaminoimidazo[2,1-a]isoquinoline] gave an IC50 in data set [2] of 11 µM. Besides, the Approximate lethal dose in data set [4] is on record as > 2,000 mg/kg. In data set [5], this compound gave an inhibition in vivo at 30 mg/kg of 58.4%.
The corresponding values for `Cc1ccccc1-c1nc2c3ccccc3ccn2c1NCCC(C)C` [Compound 188, 3-Isopentylamino-2-(2-methylphenyl)imidazo[2,1-a]isoquinoline] are 10.5 µM, > 2,000 mg/kg and 79.1%.
With `CCN(CCOC)c1c(-c2ccccc2C)nc2c3ccccc3ccn12` [Compound 205, 3-[N-Ethyl-N-(2-methoxyethyl)amino]-2-(2-methylphenyl)imidazo[2,1-a]isoquinoline], the inhibition in vivo at 30 mg/kg in data set [1] was 98.6%; in data set [5], 86%. Also, the Approximate lethal dose in data set [4] was > 2,000 mg/kg.
Turning to `CCCN(CC)c1c(-c2ccccc2C)nc2c3ccccc3ccn12` [Compound 207, 3-(N-Ethyl-N-propylamino)-2-(2-methylphenyl)imidazo[2,1-a]isoquinoline], the IC50 in data set [2] was 9.3 µM. This compound displayed an inhibition in vivo at 30 mg/kg in data set [5] of 67.4%.
Regarding `CCN(CCCSC)c1c(-c2ccccc2C)nc2c3ccccc3ccn12` [Compound 214, 3-[N-Ethyl-N-(3-methylthiopropyl)amino]-^2-(2-methylphenyl)imidazo[2,1-a]isoquinoline], in data set [2], the IC50 amounted to 7 µM. Testing at 30 mg/kg in data set [5] gave an inhibition in vivo of 56%.
In data set [1], `CCc1ccccc1-c1nc2c3ccccc3ccn2c1N(CC)CCC(C)C` [Compound 216, 3-(N-Ethyl-N-isopentylamino)-2-(2-ethylphenyl)imidazo[2,1-a]isoquinoline] had an inhibition in vivo at 30 mg/kg of 81.7%. In data set [2], this compound gave an IC50 of 2.5 µM. In addition, in data set [4], the Approximate lethal dose is > 2,000 mg/kg.
Take `C=CCNc1c(-c2ccccc2C)nc2c3ccccc3ccn12` [Compound 221, 3-allylamino-2-(2-methylphenyl)imidazo[2,1-a]isoquinoline]: the inhibition in vivo at 30 mg/kg in data set [1] was 73.7%; in data set [5], 66.7%. The Approximate lethal dose in data set [4] is recorded as > 2,000 mg/kg.
For `C=CCN(CC)c1c(-c2ccccc2C)nc2c3ccccc3ccn12` [Compound 222, 3-(N-Allyl-N-ethylamino)-2-(2-methylphenyl)imidazo[2,1-a]isoquinoline], the values for the inhibition in vivo at 30 mg/kg in data set [1] and in data set [5] were 98.8% and 72.6%, respectively. The compound further showed an IC50 in data set [2] of 2 µM. Moreover, the Approximate lethal dose in data set [4] is > 2,000 mg/kg.
As to `C=CCN(CC=C)c1c(-c2ccccc2C)nc2c3ccccc3ccn12` [Compound 223, 3-diallylamino-2-(2-methylphenyl)imidazo[2,1-a]isoquinoline], the IC50 in data set [2] amounted to 4.5 µM. In data set [5], the inhibition in vivo at 30 mg/kg was 60.1%.
The compound `Cc1ccccc1-c1nc2c3ccsc3cc(C)n2c1N` [Compound 236, 3-Amino-5-methyl-2-(2-methylphenyl)imidazo[1,2-a]thieno[3,2-c]pyridine] had an inhibition in vivo at 30 mg/kg in data set [1] of 91.5%. This compound showed an IC50 in data set [2] of 4.7 µM. Moreover, the ED50 in data set [3] was 1.4 mg/kg. Further, the Approximate lethal dose in data set [4] is on record as > 2,000 mg/kg.
In turn, `Cc1sccc1-c1nc2c3ccsc3ccn2c1N` [Compound 254, 3-Amino-2-(2-methyl-3-thienyl)imidazo[1,2-a]thieno[3,2-c]pyridine] gave an inhibition in vivo at 30 mg/kg in data set [1] of 92.4%. In addition, the IC50 in data set [2] amounted to 4.5 µM. Moreover, in data set [3], the ED50 was determined as 1.1 mg/kg.
In the case of `Cc1cc(-c2nc3c4ccsc4ccn3c2N)c(C)o1` [Compound 271, 3-Amino-2-(2,5-dimethyl-3-furyl)imidazo[1,2-a]thieno[3,2-c]pyridine], 30 mg/kg produced 99.5% inhibition in vivo in data set [1]. The compound also registered a half-maximal inhibitory concentration (IC50) in data set [2] of 5.2 µM. Also, the ED50 in data set [3] was found to be 2.4 mg/kg.
